According to US11053234B2 (GlaxoSmithKline Intellectual Property Development Limited, priority 2016, dated 2021):

Target: T1, haematopoietic prostaglandin D synthase (H-PGDS) (Homo sapiens, UniProt O60760)
T1 construct: Full length human H-PGDS cDNA (Invitrogen Ultimate ORF 10H13026) was amplified by PCR; 6-His (N); TEV protease cleavage site (N); made in house; host or cells: E. coli BL21 (DE3*), vector pET22b+
Assay: H-PGDS RapidFire high throughput mass spectrometry assay (conversion of PGH2 to PGD2)
Type: biochemical
Conditions: 10 nM H-PGDS, PGH2 formed in situ by COX-2 from arachidonic acid; read-out: Potency Range (mean pIC50) (converted)
Method in brief: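 RapidFire SPE–MS read-out calculated percent conversion from relative PGD2 and PGF2α (substrate surrogate) levels. Recombinant full-length human H-PGDS (His-tag, E. coli) turned over PGH2, produced in situ at ˜10 μM by human COX-2 (FLAG-tag, Sf9 cells) acting on arachidonic acid.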

T1 sequence (O60760 whole entry): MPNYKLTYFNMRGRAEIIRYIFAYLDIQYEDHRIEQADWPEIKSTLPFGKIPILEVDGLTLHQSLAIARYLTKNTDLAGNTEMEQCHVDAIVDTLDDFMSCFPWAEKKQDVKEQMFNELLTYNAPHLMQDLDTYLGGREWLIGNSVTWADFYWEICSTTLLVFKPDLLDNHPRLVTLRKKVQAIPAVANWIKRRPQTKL

## CC(C)Nc1nccc(N2CC(NC(=O)[C@H]3C[C@H](Oc4cccc5scnc45)C3)C2)n1 [Example 70, (trans)-3-(Benzo[d]thiazol-4-yloxy)-N-(1-(2-(isopropylamino)pyrimidin-4-yl)azetidin-3-yl)cyclobutanecarboxamide]
  IC50: 100 to 1000 nM

## Cc1nnc(NC(=O)[C@H]2C[C@H](Oc3cccc4ccoc34)C2)s1 [Example 266, (trans)-3-(Benzofuran-7-yloxy)-N-(5-methyl-1,3,4-thiadiazol-2-yl)cyclobutanecarboxamide]
  IC50: 10 to 79.4 nM

## COC(=O)C12CCC(NC(=O)N3CC(Oc4cccc5scnc45)C3)(CC1)CC2 [Example 327, Methyl 4-(3-(benzo[d]thiazol-4-yloxy)azetidine-1-carboxamido)bicyclo[2.2.2]octane-1-carboxylate]
  IC50: 10 to 79.4 nM

## C[C@@H]1[C@H](Oc2cccc3scnc23)CN1C(=O)N[C@H]1CC[C@H](C(C)(C)O)CC1 [Example 305, (2R,3R)-3-(Benzo[d]thiazol-4-yloxy)-N-((trans)-4-(2-hydroxypropan-2-yl)cyclohexyl)-2-methylazetidine-1-carboxamide]
  IC50: 10 to 79.4 nM

## CC(C)(O)[C@@H]1CC[C@@H](NC(=O)[C@H]2C[C@H](Oc3cc(F)cc4scnc34)C2)CO1 (racemic) [Example 139, Racemic (trans)-3-((6-Fluorobenzo[d]thiazol-4-yl)oxy)-N-((trans)-6-(2-hydroxypropan-2-yl)tetrahydro-2H-pyran-3-yl)cyclobutanecarboxamide]
  IC50: 10 to 79.4 nM

## CC(C)(O)C1CC2(CC(NC(=O)[C@H]3C[C@H](Oc4cccc5scnc45)C3)C2)C1 (mixture of isomers) [Example 83, Racemic (trans)-3-(Benzo[d]thiazol-4-yloxy)-N-(6-(2-hydroxypropan-2-yl)spiro[3.3]heptan-2-yl)cyclobutanecarboxamide]
  IC50: 10 to 79.4 nM

## CC(C)(O)[C@H]1CC[C@H](NC(=O)[C@H]2C[C@H](Oc3cc(F)cc(F)c3)C2)CC1 [Example 283, (trans)-3-(3,5-Difluorophenoxy)-N-((trans)-4-(2-hydroxypropan-2-yl)cyclohexyl)cyclobutanecarboxamide]
  IC50: 100 to 1000 nM

## COc1ccccc1O[C@H]1C[C@H](C(=O)N[C@H]2CC[C@H](C(C)(C)O)CC2)C1 [Example 284, (trans)-N-((trans)-4-(2-hydroxypropan-2-yl)cyclohexyl)-3-(2-methoxyphenoxy)cyclobutanecarboxamide]
  IC50: 10 to 79.4 nM

## O=C(NC1CN(c2ncc(CO)cn2)C1)N1CC(Oc2cc(F)cc3scnc23)C1 [Example 113, 3-((6-Fluorobenzo[d]thiazol-4-yl)oxy)-N-(1-(5-(hydroxymethyl)pyrimidin-2-yl)azetidin-3-yl)azetidine-1-carboxamide]
  IC50: 10 to 79.4 nM

## CC(=O)c1coc(N2CC(NC(=O)[C@H]3C[C@H](Oc4cccc5scnc45)C3)C2)n1 [Example 47, (trans)-N-(1-(4-Acetyloxazol-2-yl)azetidin-3-yl)-3-(benzo[d]thiazol-4-yloxy)cyclobutanecarboxamide]
  IC50: 100 to 1000 nM

## O=C1CC(NC(=O)[C@H]2C[C@H](Oc3cccc4scnc34)C2)c2ccccc2N1 (mixture of isomers) [Example 84, Racemic (trans)-3-(Benzo[d]thiazol-4-yloxy)-N-(2-oxo-1,2,3,4-tetrahydroquinolin-4-yl)cyclobutanecarboxamide]
  IC50: 10 to 79.4 nM

## CC(C)(O)[C@H]1CC[C@H](NC(=O)[C@H]2C[C@H](Oc3cccc4cccnc34)C2)CC1 [Example 225, N-((trans)-4-(2-Hydroxypropan-2-yl)cyclohexyl)-3-(quinolin-8-yloxy)cyclobutanecarboxamide]
  IC50: 10 to 79.4 nM

## CCOC(=O)c1csc(NC(=O)[C@H]2C[C@H](Oc3cc(F)ccc3OC(F)F)C2)n1 [Example 31, ethyl 2-((trans)-3-(2-(difluoromethoxy)-5-fluorophenoxy)cyclobutanecarboxamido)thiazole-4-carboxylate]
  IC50: < 10 nM

## O=C(NC1CCN(c2ccccn2)C1)[C@H]1C[C@H](Oc2cccc3scnc23)C1 (mixture of isomers) [Example 82, Racemic (trans)-3-(Benzo[d]thiazol-4-yloxy)-N-(1-(pyridin-2-yl)pyrrolidin-3-yl)cyclobutanecarboxamide]
  IC50: 10 to 79.4 nM

## Cc1nccc(N2CC(NC(=O)[C@H]3C[C@H](Oc4cc(F)cc5scnc45)C3)C2)n1 [Example 123, (trans)-3-((6-Fluorobenzo[d]thiazol-4-yl)oxy)-N-(1-(2-methylpyrimidin-4-yl)azetidin-3-yl)cyclobutanecarboxamide]
  IC50: 10 to 79.4 nM

## O=C(NC12CC(Nc3ncccn3)(C1)C2)[C@H]1C[C@H](Oc2cccc3scnc23)C1 [Example 315, (trans)-3-(Benzo[d]thiazol-4-yloxy)-N-(3-(pyrimidin-2-ylamino)bicyclo[1.1.1]pentan-1-yl)cyclobutane-1-carboxamide]
  IC50: 10 to 79.4 nM

## COc1ccc(F)cc1O[C@H]1C[C@H](C(=O)NC2CCN(c3nccs3)CC2)C1 [Example 154, (trans)-3-(5-Fluoro-2-methoxyphenoxy)-N-(1-(thiazol-2-yl)piperidin-4-yl)cyclobutanecarboxamide]
  IC50: 10 to 79.4 nM

## CCOC(=O)c1cnc(N2CC(NC(=O)[C@H]3C[C@H](Oc4cccc5scnc45)C3)C2)o1 [Example 48, Ethyl 2-(3-((trans)-3-(benzo[d]thiazol-4-yloxy)cyclobutanecarboxamido)azetidin-1-yl)oxazole-5-carboxylate]
  IC50: 100 to 1000 nM

## O=C(N[C@H]1CC[C@H](N2CCCS2(=O)=O)CC1)N1CC(Oc2cccc3scnc23)C1 [Example 101, 3-(Benzo[d]thiazol-4-yloxy)-N-((trans)-4-(1,1-dioxidoisothiazolidin-2-yl)cyclohexyl)azetidine-1-carboxamide]
  IC50: 10 to 79.4 nM

## O=C(Nc1nc(C2CC2)cs1)[C@H]1C[C@H](Oc2cccc3cccnc23)C1 [Example 207, (trans)-N-(4-Cyclopropylthiazol-2-yl)-3-(quinolin-8-yloxy)cyclobutanecarboxamide]
  IC50: < 10 nM

## CS(=O)(=O)c1ccc(NC(=O)N2CC(Oc3cccc4scnc34)C2)c(F)c1 [Example 308, 3-(Benzo[d]thiazol-4-yloxy)-N-(2-fluoro-4-(methylsulfonyl)phenyl)azetidine-1-carboxamide]
  IC50: 10 to 79.4 nM

## O=C(NC1CCN(CC(F)(F)F)CC1)N1CC(Oc2cccc3scnc23)C1 [Example 91, 3-(Benzo[d]thiazol-4-yloxy)-N-(1-(2,2,2-trifluoroethyl)piperidin-4-yl)azetidine-1-carboxamide]
  IC50: 10 to 79.4 nM

## Cc1cnc(NC(=O)[C@H]2C[C@H](Oc3cccc4cccnc34)C2)s1 [Example 217, (trans)-N-(5-Methylthiazol-2-yl)-3-(quinolin-8-yloxy)cyclobutanecarboxamide]
  IC50: 10 to 79.4 nM

## CS(=O)(=O)c1ccc(NC(=O)[C@H]2C[C@H](Oc3cccc4scnc34)C2)c(F)c1 [Example 247, (trans)-3-(Benzo[d]thiazol-4-yloxy)-N-(2-fluoro-4-(methylsulfonyl)phenyl)cyclobutanecarboxamide]
  IC50: 10 to 79.4 nM

## Cc1nccc(N2CC(NC(=O)N3CC(Oc4cc(F)cc5scnc45)C3)C2)n1 [Example 122, 3-((6-Fluorobenzo[d]thiazol-4-yl)oxy)-N-(1-(2-methylpyrimidin-4-yl)azetidin-3-yl)azetidine-1-carboxamide]
  IC50: 10 to 79.4 nM

## O=C(NC1CN(c2nccc(Cl)n2)C1)[C@H]1C[C@H](Oc2cccc3scnc23)C1 [Example 74, (trans)-3-(Benzo[d]thiazol-4-yloxy)-N-(1-(4-chloropyrimidin-2-yl)azetidin-3-yl)cyclobutanecarboxamide]
  IC50: 10 to 79.4 nM

## COc1ccc(F)cc1O[C@H]1C[C@H](C(=O)NC2CCN(c3cc(C#N)ccn3)CC2)C1 [Example 155, (trans)-N-(1-(4-Cyanopyridin-2-yl)piperidin-4-yl)-3-(5-fluoro-2-methoxyphenoxy)cyclobutanecarboxamide]
  IC50: 10 to 79.4 nM

## O=C(N[C@H]1CC[C@H](N[C@@H](CO)C(F)(F)F)CC1)N1CC(Oc2cccc3scnc23)C1 [Example 53, 3-(Benzo[d]thiazol-4-yloxy)-N-((trans)-4-(((S)-1,1,1-trifluoro-3-hydroxypropan-2-yl)amino)cyclohexyl)azetidine-1-carboxamide]
  IC50: 10 to 79.4 nM

## CN/C(=N\C#N)N1CC(NC(=O)[C@H]2C[C@H](Oc3cccc4scnc34)C2)C1 [Example 65, (trans)-3-(Benzo[d]thiazol-4-yloxy)-N-(1-((E)-N′-cyano-N-methylcarbamimidoyl)azetidin-3-yl)cyclobutanecarboxamide]
  IC50: 100 to 1000 nM

## CC(C)(O)c1csc(NC(=O)[C@H]2C[C@H](Oc3cccc4cccnc34)C2)n1 [Example 200, (trans)-N-(4-(2-Hydroxypropan-2-yl)thiazol-2-yl)-3-(quinolin-8-yloxy)cyclobutanecarboxamide]
  IC50: 10 to 79.4 nM

## CC(C)(O)C12CC(NC(=O)N3CC(Oc4cccc5scnc45)C3)(C1)C2 [Example 316, 3-(Benzo[d]thiazol-4-yloxy)-N-(3-(2-hydroxypropan-2-yl)bicyclo[1.1.1]pentan-1-yl)azetidine-1-carboxamide]
  IC50: 100 to 1000 nM

## COc1ccc(F)cc1O[C@H]1C[C@H](C(=O)NC2CCN(c3ncc(C#N)s3)C2)C1 (mixture of isomers) [Example 144, Racemic (trans)-N-(1-(5-Cyanothiazol-2-yl)pyrrolidin-3-yl)-3-(5-fluoro-2-methoxyphenoxy)cyclobutanecarboxamide]
  IC50: 10 to 79.4 nM

## CCC(=O)C1CC2(CC(NC(=O)[C@H]3C[C@H](Oc4cc(F)cc5scnc45)C3)C2)C1 (stereo partly drawn) [Example 233, (trans)-3-((6-Fluorobenzo[d]thiazol-4-yl)oxy)-N-(6-propionylspiro[3.31]heptan-2-yl)cyclobutanecarboxamide]
  IC50: 10 to 79.4 nM

## CC(=O)c1csc(NC(=O)[C@H]2C[C@H](Oc3cccc4scnc34)C2)n1 [Example 68, (trans)-N-(4-Acetylthiazol-2-yl)-3-(benzo[d]thiazol-4-yloxy)cyclobutanecarboxamide]
  IC50: 10 to 79.4 nM
